One data set addresses T1, human CaMKIIδ (Homo sapiens, UniProt Q13557).
T1 construct: Full-length, glutathione-S-transferase(GST)-tagged, human CaMKIIδ was purchased from Carna Biosciences; purchased Carna Biosciences (CaMKIIδ); Wako Pure Chemical Industries (calmodulin) 02-111
The data set is described as follows: In vitro CaMKII inhibitory activity (binding assay, TR-FRET). To be noted: activity ranks. The gist of the method: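 TR-FRET displacement of a BODIPY probe (300 nM) from 0.5 nM full-length GST-tagged human CaMKIIδ, with Tb-anti-GST, calmodulin and 1 mM CaCl2 in pH 7.6 HEPES/MgCl2 buffer. Read after 1 hr at room temperature over an eight-point 4-fold series. IC50 by logistic fit, with 3 μM parent compound as the 100% control.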
A general note: In TR-FRET formats the signal depends on donor and acceptor labels being close together.

The test system of data set [1] is phospholamban (Thr17, PLN) phosphorylation, cardiac CaMKII. The data set is described as follows: In vivo cardiac CaMKII inhibition (oral administration), P-PLN Western blot. The following applies: male CD (SD) IGS rat left ventricle, 30 mg/kg p.o., 4 hr after administration, in comparison with vehicle-treated group, read-out: Reduction rate of P-PLN. As to the method: Evaluation of In Vivo Cardiac CaMKII Inhibition (Oral Administration)
To evaluate potency of test compounds to inhibit cardiac CaMKII kinase in vivo, phosphorylation levels of CaMKII-specific sites of phospholamban (Thr17, PLN) were measured in the heart of rats administered orally with test compounds.
Test compounds were suspended in 0.5% [w/v]methylcellulose/water solution and administered (30 mg/kg) to male CD (SD) IGS rat (6-8 weeks old, n=4) by the p.o. route (5 mL/kg). At 4 hours after the administration, rats were sacrificed and the hearts were harvested. After washing the isolated hearts with ice-cold saline, connective tissues were removed on ice, and the isolated left ventricle were frozen into liquid nitrogen gas and stored at −80° C.
(§1) The left ventricle samples were homogenized in RIPA-buffer containing phosphatase inhibitors and protease inhibitors. Samples were analyzed by Western blotting using anti-P-PLN (Thr17, Santa Cruz Biotechnology, sc-17024-R) antibody. The band intensities were quantified using an imaging system and were normalized relative to the vehicle-treated group.

In another data set the test system is HepG2 cells. Nature of the data set: In vitro cytotoxicity (cellular ATP content, CellTiter-Glo). To be noted: 33 μM, 72 hr incubation. In kind it is cell-based. Here is the method:
Evaluation of In Vitro Cytotoxicity
To evaluate in vitro cytotoxicity of test compounds, % ATP reduction was determined in the presence of 33 μM of each test compound after 72 hr incubation.
HepG2 cells were seeded in DMEM (Invitrogen) containing 10% FBS (Corning)+glucose (4.5 g/L) for 24 hr to allow cell adhesion. For compound treatments, compounds were diluted in DMSO and the media, followed by added to the wells (24 hr after the cell seeding) to obtain the desired final concentration (33 μM, n=2). The final DMSO concentration was 1%. After 72 hr, cellular ATP contents were measured using CellTiter-Glo Luminescent Cell Viability Assay (Promega). The % ATP reduction was determined by comparing the ATP contents in the absence and the presence of test compounds.

Data set [2] has as its system phospholamban (Thr17, PLN) phosphorylation, cardiac CaMKII. Nature of the data set: In vivo cardiac CaMKII inhibition (intravenous administration), P-PLN Western blot. To be noted: male CD (SD) IGS rat left ventricle, 1 mg/kg bolus i.v., 0.25 hr after administration, in comparison with vehicle-treated group. As to the method: Evaluation of In Vivo Cardiac CaMKII Inhibition (Intravenous Administration)
To evaluate potency of test compounds to inhibit cardiac CaMKII kinase in vivo, phosphorylation levels of CaMKII-specific sites of phospholamban (Thr17, PLN) were measured in the heart of rats administered intravenously with test compounds.
Test compounds were dissolved in N,N-dimethylacetamide and 1,3-butanediol (1:1) solution and were injected (1 mg/kg) to male CD (SD) IGS rats (8 weeks old, n=4) by bolus intravenous injection via the lateral tail vein or the femoral vein (0.5-1 mL/kg). At 0.25 hours after the injection, rats were sacrificed and the hearts were harvested. After washing the isolated hearts with ice-cold saline, connective tissues were removed on ice, and the isolated left ventricle were frozen into liquid nitrogen gas and stored at −80° C.
as §1

Where [3] appears, read: Table 1, GST-tagged human CaMKIIδ.
Where [4] appears, read: Table 4, GST-tagged human CaMKIIδ.

The results in this text go back to US11130752B2, “Aminopyrimidine compound” (Cardurion Pharmaceuticals, LLC, priority 2018, dated 2021).

Structures are written as SMILES.

Usually IC50 stands for the concentration needed to halve the response being measured. The melting point is the temperature of the solid-liquid transition.

Take `COCCCOc1nn([C@H]2CC[C@H](N3CCOCC3)CC2)cc1Nc1ncc(-c2ccc(C#N)c(O[C@@H](C)Cn3cnnn3)c2)cn1` [Example 26, 2-(((S)-1-(1H-tetrazol-1-yl)propan-2-yl)oxy)-4-(2-((3-(3-methoxypropoxy)-1-((1r,4r)-4-morpholinocyclohexyl)-1H-pyrazol-4-yl)amino)pyrimidin-5-yl)benzonitrile]: the melting point turned out to be 153 °C. The same molecule gave an IC50 on human CaMKIIδ (setting [3]) of under 10 nM. Also, in data set [1], the inhibition in vivo at 30 mg/kg is over 30%. Further, the “% ATP reduction” value in the data set with HepG2 cells turned out to be 9%.

As to `COCCCOc1nn([C@H]2CC[C@H](N3C[C@@H](C)O[C@@H](C)C3)CC2)cc1Nc1ncc(-c2ccc(C#N)c(O[C@@H](C)Cn3cnnn3)c2)cn1` [Example 143, 2-(((S)-1-(1H-tetrazol-1-yl)propan-2-yl)oxy)-4-(2-((1-((1r,4r)-4-((2S,6R)-2,6-dimethylmorpholino)cyclohexyl)-3-(3-methoxypropoxy)-1H-pyrazol-4-yl)amino)pyrimidin-5-yl)benzonitrile], the melting point worked out at 113 °C. The same molecule showed an IC50 on human CaMKIIδ (setting [3]) of under 10 nM. For the same molecule, in data set [1], the inhibition in vivo at 30 mg/kg is over 30%. Moreover, in data set [2], the “Reduction rate of P-PLN” value was over 30%. For the same molecule, the “% ATP reduction” value in the data set on HepG2 cells is listed as 12%.

Molecule `COCCOCCOc1nn([C@H]2CC[C@H](N3C[C@@H](C)O[C@@H](C)C3)CC2)cc1Nc1ncc(-c2ccc(C#N)c(O[C@@H](C)Cn3cnnn3)c2)cn1.Cl` [Example 241, 2-(((S)-1-(1H-tetrazol-1-yl)propan-2-yl)oxy)-4-(2-((1-((1r,4r)-4-((2S,6R)-2,6-dimethylmorpholino)cyclohexyl)-3-(2-(2-methoxyethoxy)ethoxy)-1H-pyrazol-4-yl)amino)pyrimidin-5-yl)benzonitrile hydrochloride] came in with an IC50 on human CaMKIIδ (setting [3]) of under 10 nM. Besides, the “% ATP reduction” value in the data set on HepG2 cells is on record as −2%.

Turning to `C[C@@H]1CN([C@H]2CC[C@H](n3cc(Nc4ncc(-c5ccc(C#N)c(O[C@@H](C)Cn6cnnn6)c5)cn4)c(OCCC4COC4)n3)CC2)C[C@H](C)O1` [Example 477, 2-(((S)-1-(1H-tetrazol-1-yl)propan-2-yl)oxy)-4-(2-((1-((1r,4r)-4-((2S,6R)-2,6-dimethylmorpholino)cyclohexyl)-3-(2-(oxetan-3-yl)ethoxy)-1H-pyrazol-4-yl)amino)pyrimidin-5-yl)benzonitrile], on human CaMKIIδ (setting [4]), the half-inhibitory concentration (IC50) was under 10 nM. Further, the “% ATP reduction” value in the data set on HepG2 cells is 9%.

`C[C@@H]1CN([C@H]2CC[C@H](n3cc(Nc4ncc(-c5ccc(C#N)c(O[C@@H](C)Cn6cnnn6)c5)cn4)c(OCCC(C)(C)O)n3)CC2)C[C@H](C)O1` [Example 485, 2-(((S)-1-(1H-tetrazol-1-yl)propan-2-yl)oxy)-4-(2-((1-((1r,4r)-4-((2S,6R)-2,6-dimethylmorpholino)cyclohexyl)-3-(3-hydroxy-3-methylbutoxy)-1H-pyrazol-4-yl)amino)pyrimidin-5-yl)benzonitrile] yielded an IC50 on human CaMKIIδ (setting [4]) of under 10 nM. Besides, in data set [2], the “Reduction rate of P-PLN” value was over 30%. Moreover, in the data set with HepG2 cells, the “% ATP reduction” value worked out at 7%.

With `COCCOCCCOc1nn([C@H]2CC[C@H](N3C[C@@H](C)O[C@@H](C)C3)CC2)cc1Nc1ncc(-c2ccc(C#N)c(O[C@@H](C)Cn3cnnn3)c2)cn1` [Example 488, 2-(((S)-1-(1H-tetrazol-1-yl)propan-2-yl)oxy)-4-(2-((1-((1r,4r)-4-((2S,6R)-2,6-dimethylmorpholino)cyclohexyl)-3-(3-(2-methoxyethoxy)propoxy)-1H-pyrazol-4-yl)amino)pyrimidin-5-yl)benzonitrile], on human CaMKIIδ (setting [4]), the IC50 is under 10 nM. Also, the inhibition in vivo at 30 mg/kg in data set [1] was over 30%. In addition, in the data set on HepG2 cells, the “% ATP reduction” value was 3%.
